{
  "source": "paper PMC7961214",
  "about": "(Advanced Pharmaceutical Bulletin, 2020)",
  "key": {"[1]": {"assay": "In vivo pharmacokinetic study, curcumin plasma concentration by UPLC-MS/MS", "design": "species or system female Wistar rats", "conditions": "rats, single oral dose 100 mg/kg BW, mean ± SE (n = 5)", "procedure": "The pharmacokinetic evaluation was carried out after obtaining approval from the Ethics Committee of the Faculty of Medicine Universitas Indonesia (approval number: 1188/ UN.2 F1/ETIK/2018). A pharmacokinetic study was carried out in female Wistar rats to determine the pharmacokinetic profile of curcumin particles and nanoparticles. Rats weighing 150–200 g were obtained and maintained at the Biomedical Research Center and Basic Health Technology Laboratory, Balitbangkes, Republic of Indonesia, Ministry of Health. The rats were placed in a room with constant temperature and humidity, adequate lighting, pellet food, and water ad libitum.\nFor each analysis, blood samples were pooled from six rats. […] Blood samples were taken from the rats tail vein using EDTA tubes. Blood samples were centrifuged at 3000 rpm for 15 minutes to obtain plasma, then stored at -80°C until analysis.\nThe LC-MS/MS system used was UPLC Waters and tandem mass spectrometry with a positive electrospray ionization source. Separation of analyte in the sample was carried using a liquid chromatography system with Acquity UPLC® BEH C18 column and mobile phase gradient in the form of 0.1% and acetonitrile formic acid with a ratio of 72:28 with analyte rate of 0.3 mL/min and injection volume of 3 µL. […] The calibration curve of a standard solution was made with the final level of the analytes at 1, 2.5, 5, 10, 25, and 50 ng/mL.[24]\nThe pharmacokinetic profiles were represented as mean and standard error (SE) from each group and were estimated through non-compartmental analysis. […] The area under the curve (AUC) from the beginning to the endpoint ( AUC^0→3 ) was calculated using the trapezoidal method. AUC^0→∞ is the amount of the AUC per time interval from 0 to the time of infinity, calculated by AUC^0→3 […]; Cpn is the plasma concentration at the last sampling time. […] The t1/2 was counted using the equation t1/2 = ln 2/Ke, and the CL was calculated by dividing the dose by AUC^0→∞ .[25]"}, "[2]": {"assay": "Particle size and distribution (Delsa Nanoparticle Size Analyzer)", "assay_type": "physicochemical", "text": "The examination of particle size and distribution of particles from nanoparticles was done using the Delsa™ Nanoparticle Size Analyzer (Beckman Coulter, Brea, USA)."}, "[3]": {"conditions": "cited from earlier work"}, "[4]": {"conditions": "cited from earlier work", "remark": "listed apart in the source"}, "[5]": {"conditions": "340 mg/kg given orally ref Timothy et al; cited from earlier work"}},
  "note": "Where two headings read alike, the source gives them in different places.",
  "data": [
    {"smiles": "COc1cc(/C=C/C(=O)CC(=O)/C=C/c2ccc(O)c(OC)c2)ccc1O", "note": "[Curcumin particles, Curcumin]", "values": [
      {"measurement": "Cmax", "setting": "[1]; female, Wistar, rat", "result": "1.51 ± 0.401", "unit": "ng/mL"},
      {"measurement": "Tmax", "setting": "[1]; female, Wistar, rat", "result": 44, "unit": "min"},
      {"measurement": "AUC(0-t)", "setting": "[1]; female, Wistar, rat, read-out: AUC0-3", "result": "1.5 ± 0.401", "unit": "ng·h/mL"},
      {"measurement": "AUC", "setting": "[1]; female, Wistar, rat, read-out: AUC0-~", "result": "1.71 ± 0.535", "unit": "ng·h/mL"},
      {"measurement": "k el", "setting": "[1]; female, Wistar, rat, read-out: Ke (converted)", "result": 0.000327, "unit": "s⁻¹"},
      {"measurement": "half-life", "setting": "[1]; female, Wistar, rat, read-out: t1/2 elimination (converted)", "result": "51.5 ± 12.8", "unit": "min"},
      {"measurement": "Ka", "setting": "[1]; residual method", "result": "1.958 ± 0.468", "unit": "h⁻¹"},
      {"measurement": "mean particle size", "setting": "[2]", "result": 16103.4, "unit": "nm"},
      {"measurement": "partition coefficient", "setting": "[3]", "result": "2.3–2.6"},
      {"measurement": "bioavailability", "setting": "[4]", "result": "approximately 1%"},
      {"measurement": "Tmax", "setting": "[5]", "result": 30, "unit": "min"}
    ]}
  ]
}
